Experimental data taken from PMC6363832 (Cancer epidemiology, biomarkers & prevention : a …, 2018).

How the values were obtained:
Assay type in all cases: biochemical
Details in all cases: NADPH regenerating system, 50 mM potassium phosphate, 37 °C; HEK293 microsomes
wt FMO5 [1] = target: T1, wt FMO5 (Homo sapiens, UniProt P49326); assay: benzydamine N-oxidation, UPLC-MS/MS
T1 sequence (P49326 1-533): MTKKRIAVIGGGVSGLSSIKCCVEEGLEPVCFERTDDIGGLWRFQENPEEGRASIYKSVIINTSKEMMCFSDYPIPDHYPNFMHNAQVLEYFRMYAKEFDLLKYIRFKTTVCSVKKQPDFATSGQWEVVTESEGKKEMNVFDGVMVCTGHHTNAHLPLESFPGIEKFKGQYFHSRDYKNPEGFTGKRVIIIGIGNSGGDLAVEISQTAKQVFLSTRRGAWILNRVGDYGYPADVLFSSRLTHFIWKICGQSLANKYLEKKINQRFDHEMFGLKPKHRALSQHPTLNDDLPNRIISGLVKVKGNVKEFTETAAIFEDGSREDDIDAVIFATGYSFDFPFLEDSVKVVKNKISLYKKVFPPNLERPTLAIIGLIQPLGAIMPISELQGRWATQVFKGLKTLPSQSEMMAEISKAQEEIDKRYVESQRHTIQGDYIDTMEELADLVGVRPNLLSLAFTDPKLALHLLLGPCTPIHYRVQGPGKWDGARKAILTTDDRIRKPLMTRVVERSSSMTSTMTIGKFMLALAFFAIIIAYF

wt FMO4 [2] = target: T2, wt FMO4 (Homo sapiens, UniProt P31512); assay: benzydamine N-oxidation, UPLC-MS/MS
T2 sequence (P31512 1-558): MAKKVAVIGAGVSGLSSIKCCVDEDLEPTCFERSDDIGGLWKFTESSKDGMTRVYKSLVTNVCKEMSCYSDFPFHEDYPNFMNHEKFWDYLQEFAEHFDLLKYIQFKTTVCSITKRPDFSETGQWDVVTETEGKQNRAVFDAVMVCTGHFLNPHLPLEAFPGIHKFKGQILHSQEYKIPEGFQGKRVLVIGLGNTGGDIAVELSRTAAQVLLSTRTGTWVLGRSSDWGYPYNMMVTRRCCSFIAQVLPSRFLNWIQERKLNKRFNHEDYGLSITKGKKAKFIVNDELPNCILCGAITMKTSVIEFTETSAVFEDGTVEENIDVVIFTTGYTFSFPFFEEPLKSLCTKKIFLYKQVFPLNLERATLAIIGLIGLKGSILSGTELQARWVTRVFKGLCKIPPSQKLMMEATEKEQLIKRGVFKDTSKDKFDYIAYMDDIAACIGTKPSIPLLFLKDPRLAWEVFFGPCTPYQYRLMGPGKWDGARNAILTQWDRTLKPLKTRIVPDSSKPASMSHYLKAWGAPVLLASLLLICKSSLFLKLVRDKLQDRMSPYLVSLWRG

wt FMO5 [3] = target: T1, wt FMO5; assay: nicotine-N'-oxide formation, UPLC-MS/MS
wt FMO4 [4] = target: T2, wt FMO4; assay: nicotine-N'-oxide formation, UPLC-MS/MS

Q: For CN(C)CCCOc1nn(Cc2ccccc2)c2ccccc12 [benzydamine], which Km (wt FMO5 [1]) is on record?
A: > 2 mM

Q: And the Km (wt FMO4 [2])?
A: > 3 mM

Q: With CN1CCC[C@H]1c1cccnc1 [compound 4, nicotine] as the molecule, how does the Km (wt FMO5 [3]) read?
A: > 5 mM

Q: And the Km (wt FMO4 [4])?
A: > 5 mM
